The text below walks through data of paper PMC11969031, “The homeostasis of β‐alanine is key for Arabidopsis reproductive growth and development” (The Plant Journal, 2025).

In assay [1] the target is T1, Col-0-PYD4 (AT3G08860, recombinant) (Arabidopsis thaliana, UniProt Q9SR86).
T1 construct: first 31 residues (signal peptide) removed; codon-optimised synthetic gene, pET24a, C-terminal His6; E. coli BL21(DE3); Ni-NTA
T1 sequence (Q9SR86 32-481): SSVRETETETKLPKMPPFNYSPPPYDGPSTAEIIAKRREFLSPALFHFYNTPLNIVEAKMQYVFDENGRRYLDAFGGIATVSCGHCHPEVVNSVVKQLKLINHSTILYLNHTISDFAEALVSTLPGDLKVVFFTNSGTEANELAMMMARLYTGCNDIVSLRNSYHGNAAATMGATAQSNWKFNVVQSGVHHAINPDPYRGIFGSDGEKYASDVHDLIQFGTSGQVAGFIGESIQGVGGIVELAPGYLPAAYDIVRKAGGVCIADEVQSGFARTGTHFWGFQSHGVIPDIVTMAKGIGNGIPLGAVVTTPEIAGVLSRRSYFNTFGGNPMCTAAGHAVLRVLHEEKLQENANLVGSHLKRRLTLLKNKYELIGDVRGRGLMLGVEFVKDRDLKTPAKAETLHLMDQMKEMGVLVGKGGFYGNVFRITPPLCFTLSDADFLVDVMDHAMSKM
Put plainly: coupled NADH assay at […] nm (pyruvate or alanine dehydrogenase). Type of assay: biochemical. The note with it: 50 mM Tris pH 8.0, 30°C.

In assay [2] the target is T2, AGT2_weak (AT4G39660, recombinant) (Arabidopsis thaliana, UniProt Q940M2).
T2 construct: gene AGT2; first 29 residues (signal peptide) of 476 removed; codon-optimised synthetic gene, pET24a, C-terminal His6; E. coli BL21(DE3); Ni-NTA
T2 sequence (Q940M2 30-476): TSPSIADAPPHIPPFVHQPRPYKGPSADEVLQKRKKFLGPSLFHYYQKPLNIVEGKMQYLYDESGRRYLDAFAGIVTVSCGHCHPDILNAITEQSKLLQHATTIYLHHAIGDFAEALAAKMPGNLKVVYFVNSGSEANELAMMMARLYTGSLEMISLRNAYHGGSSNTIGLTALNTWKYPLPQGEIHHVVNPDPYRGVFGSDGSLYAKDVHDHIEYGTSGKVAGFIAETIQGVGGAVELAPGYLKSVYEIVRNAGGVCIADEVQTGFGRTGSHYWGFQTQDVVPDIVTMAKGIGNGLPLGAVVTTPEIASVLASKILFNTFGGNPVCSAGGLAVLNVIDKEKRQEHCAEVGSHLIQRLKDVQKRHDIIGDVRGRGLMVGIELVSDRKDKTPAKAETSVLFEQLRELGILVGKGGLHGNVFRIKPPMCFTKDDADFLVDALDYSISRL
Put plainly: coupled NADH assay at […] nm (pyruvate dehydrogenase). In kind it is biochemical. The note with it: amino donor; 50 μM glyoxylate/2-oxoglutarate/pyruvate, 3 μM enzyme, 50 mM Tris pH 8.0, 30°C; degradation direction only.

SMILES strings stand for the structures.

For `C[C@H](N)C(=O)O` [L‐alanine], in assay [1] (amino donor (positive control enzyme; works in both directions)), the “coupled NADH assay at 340 nm (pyruvate or alanine dehydrogenase)” value is “activity when L‐alanine was used as the amino donor, but unlike PYD4, AGT2 only functions”. For the same compound, the “coupled NADH assay at 340 nm (pyruvate dehydrogenase)” value in assay [2] is on record as “We also detected activity when L‐alanine was used as the amino donor”.

On to `NCCC(=O)O` [β‐alanine], for which, in assay [1] (amino donor, acceptor not given), the “coupled NADH assay at 340 nm (pyruvate or alanine dehydrogenase)” value is “PYD4 was also able to use β‐alanine as an amino donor”.
